Results published in patent publication US6872850B2, “Small molecule inhibitors of secretion of proteins encoded by ARE-mRNAs” (Message Pharmaceuticals, priority 2001, dated 2005).

Legend:
3′ UTR of the TNFα gene = test: cell-based luciferase reporter assay, 5B cell line (luciferase gene with entire 3′ UTR of the TNFα gene); design: species or system mouse; settings: for Luciferase 5B (% of DMSO control): 1 h, then LPS, 5B cell line
Method: The candidate compounds were tested in a high-throughput, cell-based luciferase reporter assay. For this assay, a commercially available mouse macrophage Raw 264.7 cell line was stably transfected with a construct containing the CMV promoter operably linked to the luciferase gene which was modified using standard molecular biology techniques to contain the entire 3′ UTR of the TNFα gene. This 3′ UTR is important for the stability and translation of TNFα in cells. To control for effects of candidate compounds that are not specific for TNFα, a control cell line, called “3B,” was generated by stably transfecting the 264.7 cell line with a commercially available construct containing the luciferase gene (without the addition of the heterologous 3′ UTR of the TNFα gene) under the regulation of the CMV promoter.
[…] Then, lipopolysaccharide (LPS) was added to stimulate TNFα secretion. Luciferase activity was measured by determining the luminescence intensity due to the reaction of lucifern, ATP, Mg^2+, and molecular O2 (see, for example, Ausubel et al., supra). The luciferase activity in a cell incubated with a candidate compound was reported as a percentage of the luciferase activity for the corresponding cell incubated with DMSO vehicle only.
After correction for any effect caused by the administration of the DMSO only vehicle control, the effect of a candidate compound on luciferase activity in the 3B control cell line represents the global effect of the compound on any step required for expression or activity of luciferase protein, such as luciferase gene transcription, mRNA processing, mRNA stability, translation, protein stability, or enzymatic activity. […] In this case, the luciferase activity in the 5B cell line treated with the DMSO vehicle control is similar to the luciferase activity in the control 3B cell line treated with the candidate compound. Thus, the response of the 5B cell line (as a percent of the DMSO control) and the ratio of the luciferase activity in the 5B cell line (as a percent of the DMSO control) to the luciferase activity in the control 3B cell line (as a percent of the DMSO control) are similar. In desirable embodiments, the response of the 5B cell line and the 5B/3B ratio differ by less than 50, 40, 30, 20, 10, or 5%.

TNFα = test: ELISA of TNFα secreted into the media after LPS; format: cell-based
Method: The ability of candidate compounds to reduce the amount of secreted TNFα was also directly tested using an ELISA assay. […] A standard ELISA analysis was used to measure the amount of TNFα secreted into the media (see, for example, Ausubel et al., supra). The effect of a candidate compound on TNFα secretion in this assay is reported in the following tables as a percentage of the amount of TNFα secreted by a control cell that was administered a DMSO vehicle control only.

[1] = 10 μM compound, ratio of 5B to control 3B cell line

Molecule | effect on luciferase activity in the 5B cell line (luciferase assay), in words (3′ UTR of the TNFα gene) | Luciferase 5B (% of DMSO control) (3′ UTR of the TNFα gene; 10 μM compound) | Luciferase 5B/3B (% of DMSO control 5B)/(% of DMSO control 3B) (3′ UTR of the TNFα gene; [1]) | further results
C/C(=N\N=C(N)N)c1cccc(C(=O)NCCNC(=O)[C@H](Cc2ccccc2)NC(=O)c2ccc(/C(=N\N=C(N)N)c3ccccc3)cc2)c1.O=C(O)C(F)(F)F.O=C(O)C(F)(F)F [MES 10092, (1-Z,4-E)-Bisguanylhydrazone of 1-[(S)-N-(4-benzoylbenzoyl)-2-amino-3-phenylpropanoyl]-4-(3-acetylbenzoyl)-1,4-diazabutane bis trifluoroacetate] | – | – | – | Luciferase 5B/3B (% of DMSO control 5B)/(% of DMSO control 3B) (3′ UTR of the TNFα gene; 1 μM compound (Table 11)): 100 (% of DMSO control 5B)/(% of D; Luciferase 5B/3B (% of DMSO control 5B)/(% of DMSO control 3B) (3′ UTR of the TNFα gene; 3 μM compound (Table 11)): 78 (% of DMSO control 5B)/(% of D; Luciferase 5B/3B (% of DMSO control 5B)/(% of DMSO control 3B) (3′ UTR of the TNFα gene; 10 μM compound (Table 11)): 69 (% of DMSO control 5B)/(% of D; TNFα Secretion (% of DMSO control) (TNFα; 1 μM compound (Table 11)): 108 % of DM80 control; TNFα Secretion (% of DMSO control) (TNFα; 3 μM compound (Table 11)): 81 % of DM80 control; TNFα Secretion (% of DMSO control) (TNFα; 10 μM compound (Table 11)): 107 % of DM80 control
(E,E)-Bisguanylhydrazone of 1-[(S)-N-(4-benzoylbenzoyl)-2-amino-3-phenylpropanoyl]-4-[(2S)-N-(4-benzoylbenzoyl)-2-amino-4-methylpentanoyl]-1,4-piperazine bis trifluoroacetate [MES 10164] | inhibited TNFα secretion | 29 % of DMSO control | 31 (% of DMSO control 5B)/(% of DMSO control 3B) | TNFα Secretion (% of DMSO control) (TNFα; 10 μM compound, 1 h, then LPS): 45 % of DMSO control; effect on amount of secreted TNFα (direct TNFα secretion assay), in words (TNFα; after LPS stimulation): inhibited TNFα secretion
CC(C)CC(NC(=O)c1ccc(C(=NNC(=N)N)c2ccccc2)cc1)C(=O)N1CCN(C(=O)C(Cc2ccccc2)NC(=O)c2ccccc2)CC1 (stereo not shown) [MES 10247] | – | 37 % of DMSO control | 41 (% of DMSO control 5B)/(% of D | TNFα Secretion (% of DMSO control) (TNFα; 10 μM compound, 1 h, then LPS): 39 % of DMSO control
CC(=NNC(=N)N)c1cccc(C(=O)NC(CC2CCCCC2)C(=O)N2CCN(C(=O)C(Cc3ccccc3)NC(=O)c3ccc(C(=NNC(=N)N)c4ccccc4)cc3)CC2)c1 (mixture of isomers) [MES 10181] | inhibited TNFα secretion | 17 % of DMSO control | 49 (% of DMSO control 5B)/(% of DMSO control 3B) | –
CC(C)CC(NC(=O)c1ccc([N+](=O)[O-])cc1)C(=O)N1CCN(C(=O)C(Cc2ccccc2)NC(=O)c2ccc(C(=NNC(=N)N)c3ccccc3)cc2)CC1 (mixture of isomers) [MES 10224] | – | 36 % of DMSO control | 37 (% of DMSO control 5B)/(% of D | –
O=C(N[C@@H](Cc1ccccc1)C(=O)N1CCN(C(=O)CCCC(=O)N2CCN(c3ccccc3)CC2)CC1)c1ccc(C(=O)c2ccccc2)cc1 [MES 10246] | – | 46 % of DMSO control | 74 (% of DMSO control 5B)/(% of D | –
CC(=NN=C(N)N)c1cccc(C(=O)NC(CC(C)C)C(=O)NCCCNC(=O)C(C)NC(=O)c2ccc(C(=NN=C(N)N)c3ccccc3)cc2)c1 (mixture of isomers) [MES 11411] | decrease TNFα secretion | 65 % of DMSO control | 71 (% of DMSO control 5B)/(% of D | –
CC(C)CC(NC(=O)c1ccc(C(=NNC(=N)N)c2ccccc2)cc1)C(=O)N1CCN(C(=O)C(Cc2ccccc2)NC(=O)CCc2cccnc2)CC1 (mixture of isomers) [MES 10234] | – | 60 % of DMSO control | 58 (% of DMSO control 5B)/(% of D | –
CC(=NNC(=N)N)c1cccc(C(=O)NC(C(=O)N2CCN(C(=O)C(Cc3ccccc3)NC(=O)c3ccc(C(=NNC(=N)N)c4ccccc4)cc3)CC2)C(C)C)c1 (mixture of isomers) [MES 10183] | inhibited TNFα secretion | 58 % of DMSO control | 57 (% of DMSO control 5B)/(% of DMSO control 3B) | –
CC(NC(=O)c1ccc(C(=O)c2ccccc2)cc1)C(=O)N1CCN(C(=O)CCC(=O)N2CCN(c3ccccc3)CC2)CC1 (stereo not shown) [MES 10304] | – | 49 % of DMSO control | 64 (% of DMSO control 5B)/(% of D | –
CCCCC(NC(=O)c1ccc(C(=NNC(=N)N)c2ccccc2)cc1)C(=O)N1CCN(C(=O)C(Cc2ccccc2)NC(=O)c2ccc(C(=NNC(=N)N)c3ccccc3)cc2)CC1 (mixture of isomers) [MES 10184] | – | 22 % of DMSO control | 35 (% of DMSO control 5B)/(% of DMSO control 3B) | –
C/C(=N\N=C(N)N)c1cccc(C(=O)NCCNC(=O)[C@H](Cc2ccccc2)NC(=O)c2ccc(C(=O)c3ccccc3)cc2)c1.O=C(O)C(F)(F)F [MES 10093, (4-E)-Guanylhydrazone of 1-[(S)-N-(4-benzoylbenzoyl)-2-amino-3-phenylpropanoyl]-4-(3-acetylbenzoyl)-1,4-diazabutane trifluoroacetate] | – | – | – | Luciferase 5B/3B (% of DMSO control 5B)/(% of DMSO control 3B) (3′ UTR of the TNFα gene; 10 μM compound (Table 11)): 47 (% of DMSO control 5B)/(% of D
CC(C)CC(NC(=O)c1ccc(Cl)cc1)C(=O)N1CCN(C(=O)C(Cc2ccccc2)NC(=O)c2ccc(C(=NNC(=N)N)c3ccccc3)cc2)CC1 (mixture of isomers) [MES 10227] | – | 34 % of DMSO control | 39 (% of DMSO control 5B)/(% of D | –
CC(=NN=C(N)N)c1cccc(C(=O)NC(CC(C)C)C(=O)N2CCN(C(=O)C(CC(C)C)NC(=O)c3ccc(C(=NN=C(N)N)c4ccccc4)cc3)CC2)c1 (mixture of isomers) [MES 11408] | decrease TNFα secretion | 59 % of DMSO control | 54 (% of DMSO control 5B)/(% of D | –
CN1CCN(C(=O)CCC(=O)N2CCN(C(=O)[C@H](Cc3ccccc3)NC(=O)c3ccc(C(=O)c4ccccc4)cc3)CC2)CC1 [MES 10301] | – | 76 % of DMSO control | 105 (% of DMSO control 5B)/(% of D | –
CC(C)CC(NC(=O)c1ccc(C(=NNC(=N)N)c2ccccc2)cc1)C(=O)N1CCN(C(=O)C(Cc2ccccc2)NC(=O)c2cnccn2)CC1 (mixture of isomers) [MES 10235] | – | 70 % of DMSO control | 75 (% of DMSO control 5B)/(% of D | –
CC(=NNC(=N)N)c1cccc(C(=O)NC(C)C(=O)N2CCN(C(=O)C(Cc3ccccc3)NC(=O)c3ccc(C(=NNC(=N)N)c4ccccc4)cc3)CC2)c1 (mixture of isomers) [MES 11465] | decrease TNFα secretion | 72 % of DMSO control | 71 (% of DMSO control 5B)/(% of D | –
CC(C)CC(NC(=O)c1ccc(I)cc1)C(=O)N1CCN(C(=O)C(Cc2ccccc2)NC(=O)c2ccc(C(=NNC(=N)N)c3ccccc3)cc2)CC1 (mixture of isomers) [MES 10226] | greatest inhibitor activity | 23 % of DMSO control | 26 (% of DMSO control 5B)/(% of D | –
CC(C)CC(NC(=O)c1ccc2ccccc2c1)C(=O)N1CCN(C(=O)C(Cc2ccccc2)NC(=O)c2ccc(C(=NNC(=N)N)c3ccccc3)cc2)CC1 (mixture of isomers) [MES 10228] | – | 38 % of DMSO control | 40 (% of DMSO control 5B)/(% of D | –
CC(=O)N[C@@H](Cc1ccccc1)C(=O)N1CCN(C(=O)[C@H](CC(C)C)NC(=O)c2cccc(/C(C)=N/NC(=N)N)c2)CC1 [MES 10306] | – | 85 % of DMSO control | 125 (% of DMSO control 5B)/(% of D | –
CC(=NNC(=N)N)c1cccc(C(=O)NC(CC(C)C)C(=O)N2CCN(C(=O)C(Cc3ccc([N+](=O)[O-])cc3)NC(=O)c3ccc(C(=NNC(=N)N)c4ccccc4)cc3)CC2)c1 (mixture of isomers) [MES 10257] | – | 34 % of DMSO control | 60 (% of DMSO control 5B)/(% of DMSO control 3B) | –
